We go through 22 molecules from patent US12053470B2, “Pharmaceutical combination comprising an ALK inhibitor and a SHP2 inhibitor” (Novartis AG, priority 2017, dated 2024).

The test system of the assay is Ceritinib resistant MGH049 cells. Put plainly: Cell colony formation assay with ceritinib resistant MGH049 cells.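 Further: tested compounds are SHP2 inhibitors given alone, colonies fixed and crystal violet stained, DMSO reference taken as the mean of six readings.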 The conditions noted are these: Homo sapiens, 168 h; compound of Table 1 (3 μM) alone, 7 days; normalized to DMSO without compound = 100; read-out: Normalized Crystal Violet abs. (590 nm) DMSO. Type of assay: cell-based, human.

As to `CC1(N)CCN(c2cnc(Sc3cccc(NC(=O)c4c(O)nc5ccccn5c4=O)c3Cl)c(N)n2)CC1` [Compound No. 44, N-(3-((3-amino-5-(4-amino-4-methylpiperidin-1-yl)pyrazin-2-yl)thio)-2-chlorophenyl)-2-hydroxy-4-oxo-4H-pyrido[1,2-a]pyrimidine-3-carboxamide], the activity at 3 µM was 37%. With `NCC1(c2ccccc2)CCN(c2cnc(-c3cccc(Cl)c3Cl)c(N)n2)CC1` [compound 2, 6-(4-(aminomethyl)-4-phenylpiperidin-1-yl)-3-(2,3-dichlorophenyl)pyrazin-2-amine] the figure was 67%; with `Nc1nc(N2CCC3(CCC[C@H]3N)CC2)cnc1Sc1ccnc(N)c1Cl` [compound 6, (R)-8-(6-amino-5-((2-amino-3-chloropyridin-4-yl)thio)pyrazin-2-yl)-8-azaspiro[4.5]decan-1-amine], 44.5%. With `Nc1nc(N2CCC3(CC2)COC[C@H]3N)cnc1Sc1ccnc(N)c1Cl` [compound 11, (S)-8-(6-amino-5-((2-amino-3-chloropyridin-4-yl)thio)pyrazin-2-yl)-2-oxa-8-azaspiro[4.5]decan-4-amine] the figure was 58.9%; with `C[C@H]1C[C@@H](N)C2(CCN(c3cnc(Sc4ccnc(N)c4Cl)c(N)n3)CC2)C1` [compound 12, (1R,3R)-8-(6-amino-5-((2-amino-3-chloropyridin-4-yl)thio)pyrazin-2-yl)-3-methyl-8-azaspiro[4.5]decan-1-amine], 30.1%; with `Nc1nc(N2CCC3(CC2)C[C@H](O)C[C@H]3N)cnc1Sc1ccnc(Cl)c1Cl` [compound 13, (2S,4R)-4-amino-8-(6-amino-5-((2,3-dichloropyridin-4-yl)thio)pyrazin-2-yl)-8-azaspiro[4.5]decan-2-ol], 42.8%. With `Nc1nc(N2CCC3(CC2)C[C@@H](O)C[C@H]3N)cnc1Sc1ccnc(Cl)c1Cl` [compound 14, (2R,4R)-4-amino-8-(6-amino-5-((2,3-dichloropyridin-4-yl)thio)pyrazin-2-yl)-8-azaspiro[4.5]decan-2-ol] the figure was 51.2%; with `C[C@@H]1OCC2(CCN(c3cnc(Sc4ccnc(N)c4Cl)c(N)n3)CC2)[C@@H]1N` [compound 16, (3S,4S)-8-(6-amino-5-((2-amino-3-chloropyridin-4-yl)thio)pyrazin-2-yl)-3-methyl-2-oxa-8-azaspiro[4.5]decan-4-amine], 34.4%; with `C[C@@H]1OCC2(CCN(c3nc(N)c(Sc4cccnc4C(F)(F)F)c(=O)n3C)CC2)[C@@H]1N` [compound 25, 6-amino-2-((3S,4S)-4-amino-3-methyl-2-oxa-8-azaspiro[4.5]decan-8-yl)-3-methyl-5-((2-(trifluoromethyl)pyridin-3-yl)thio)pyrimidin-4(3H)-one], 52.5%. Consider `C[C@@H]1OCC2(CCN(c3nc(N)c(Sc4cccc(Cl)c4Cl)c(=O)n3C)CC2)[C@@H]1N` [compound 27, 6-amino-2-((3S,4S)-4-amino-3-methyl-2-oxa-8-azaspiro[4.5]decan-8-yl)-5-((2,3-dichlorophenyl)thio)-3-methylpyrimidin-4(3H)-one], for which the activity at 3 µM amounted to 37.8%. For the molecule `C[C@H]1C[C@@H](N)C2(CCN(c3nc(N)c(Sc4ccncc4C(F)(F)F)c(=O)n3C)CC2)C1` [compound 28, 6-amino-2-((1R,3R)-1-amino-3-methyl-8-azaspiro[4.5]decan-8-yl)-3-methyl-5-((3-(trifluoromethyl)pyridin-4-yl)thio)pyrimidin-4(3H)-one], the activity at 3 µM stood at 28.1%. As for `C[C@H]1C[C@@H](N)C2(CCN(c3nc(N)c(-c4cccc(Cl)c4Cl)c(=O)n3C)CC2)C1` [compound 29, 6-amino-2-((1R,3R)-1-amino-3-methyl-8-azaspiro[4.5]decan-8-yl)-5-(2,3-dichlorophenyl)-3-methylpyrimidin-4(3H)-one], the activity at 3 µM was found to be 25.1%. With `COc1cccc(Sc2c(N)nc(N3CCC4(CC3)CO[C@@H](C)[C@H]4N)n(C)c2=O)c1Cl` [compound 30, 6-amino-2-((3S,4S)-4-amino-3-methyl-2-oxa-8-azaspiro[4.5]decan-8-yl)-5-((2-chloro-3-methoxyphenyl)thio)-3-methylpyrimidin-4(3H)-one], the activity at 3 µM turned out to be 39.4%. As for `CC[C@@H]1OCC2(CCN(c3nc(N)c(Sc4cccnc4C(F)(F)F)c(=O)n3C)CC2)[C@@H]1N` [compound 31, 6-amino-2-((3S,4S)-4-amino-3-ethyl-2-oxa-8-azaspiro[4.5]decan-8-yl)-3-methyl-5-((2-(trifluoromethyl)pyridin-3-yl)thio)pyrimidin-4(3H)-one], the figure is 36.4%; as for `C[C@@H]1OCC2(CCN(c3nc(N)c(Sc4cccc(N)c4C(F)(F)F)c(=O)n3C)CC2)[C@@H]1N` [compound 32, 6-amino-5-((3-amino-2-(trifluoromethyl)phenyl)thio)-2-((3S,4S)-4-amino-3-methyl-2-oxa-8-azaspiro[4.5]decan-8-yl)-3-methylpyrimidin-4(3H)-one], 58.2%.

Take `Cn1c(N2CCC3(CC2)CC(F)(F)C[C@H]3N)nc(N)c(Sc2ccnc(N)c2Cl)c1=O` [compound 33, (R)-6-amino-2-(1-amino-3,3-difluoro-8-azaspiro[4.5]decan-8-yl)-5-((2-amino-3-chloropyridin-4-yl)thio)-3-methylpyrimidin-4(3H)-one]: the activity at 3 µM turned out to be 73.3%. With `C[C@@H]1OCC2(CCN(c3nc(N)c(Sc4ccncc4C(F)(F)F)c(=O)n3C)CC2)[C@@H]1N` [compound 34, 6-amino-2-((3S,4S)-4-amino-3-methyl-2-oxa-8-azaspiro[4.5]decan-8-yl)-3-methyl-5-((3-(trifluoromethyl)pyridin-4-yl)thio)pyrimidin-4(3H)-one] the figure was 43.6%; with `C[C@H]1C[C@@H](N)C2(CCN(c3nc(N)c(-c4ccc(Cl)cc4)c(=O)n3C)CC2)C1` [compound 35, 6-amino-2-((1R,3R)-1-amino-3-methyl-8-azaspiro[4.5]decan-8-yl)-5-(4-chlorophenyl)-3-methylpyrimidin-4(3H)-one], 32.2%. `C[C@H]1C[C@@H](N)C2(CCN(c3nc(N)c(-c4ccccc4)c(=O)n3C)CC2)C1` [compound 36, 6-amino-2-((1R,3R)-1-amino-3-methyl-8-azaspiro[4.5]decan-8-yl)-3-methyl-5-phenylpyrimidin-4(3H)-one]: the activity at 3 µM stood at 23.8%. Consider `CC1(CN)CCN(c2nc3[nH]cc(-c4cccc(Cl)c4Cl)c3c(=O)[nH]2)CC1` [compound 38, 2-(4-(aminomethyl)-4-methylpiperidin-1-yl)-5-(2,3-dichlorophenyl)-3,7-dihydro-4H-pyrrolo[2,3-d]pyrimidin-4-one], for which the activity at 3 µM was 83.9%. With `C[C@@H]1OCC2(CCN(c3cnc4c(-c5ccnc(Cl)c5Cl)n[nH]c4n3)CC2)[C@@H]1N` [compound 39, (3S,4S)-8-(3-(2,3-dichloropyridin-4-yl)-1H-pyrazolo[3,4-b]pyrazin-6-yl)-3-methyl-2-oxa-8-azaspiro[4.5]decan-4-amine] the figure was 97.9%; with `Cc1nc(N)ccc1-c1[nH]nc2nc(N3CCC4(CC3)C[C@@H](C)C[C@H]4N)n(C)c(=O)c12` [compound 40, 3-(6-amino-2-methylpyridin-3-yl)-6-((1R,3R)-1-amino-3-methyl-8-azaspiro[4.5]decan-8-yl)-5-methyl-2,5-dihydro-4H-pyrazolo[3,4-d]pyrimidin-4-one], 22.4%.
